Test results as given in ChEMBL document CHEMBL1148226, “Evidences for the formation of bisbenzamidine-heme complexes in cell-free systems” (Bioorg Med Chem Lett, 2004).

Columns and labels:
Plasmodium falciparum [1] = test: In vitro inhibitory concentration against chloroquine-sensitive Plasmodium falciparum; Not active; type: functional, organism-based
Plasmodium falciparum [2] = test: In vitro inhibitory concentration against chloroquine-resistant Plasmodium falciparum; Not active; type: functional, organism-based

| Compound | IC50 (Plasmodium falciparum [1]) | IC50 (Plasmodium falciparum [2]) |
| --- | --- | --- |
| CN1CCN(C)C1c1ccc(N2CCN(c3ccc(C4N(C)CCN4C)cc3)CC2)cc1 | Not Active | Not Active |
| COc1ccc(N)cc1 | Not Active | Not Active |
| CCOC(=O)c1ccc(N2CCN(c3ccc(C(=O)OCC)cc3)CC2)cc1 | Not Active | Not Active |
| Cl.N=C(N)c1ccc(N)cc1 | Not Active | Not Active |
| Nc1ccccc1 [ANILINE] | Not Active | Not Active |
| CN [METHYLAMINE] | Not Active | Not Active |
